{
  "source": "patent US5723449A",
  "about": "“Methods and compositions for inhibiting uridine secretion” (priority 1996, dated 1998)",
  "key": {"hearts [1]": {"tested_on": "hearts", "details": "hearts of dogs; cited from earlier work"}, "hearts [2]": {"tested_on": "hearts", "details": "hearts of rats; cited from earlier work"}, "bone marrow cell growth": {"tested_on": "bone marrow cell growth", "details": "cited from earlier work; for limiting toxicity: in vivo"}, "hearts [3]": {"tested_on": "hearts", "details": "hearts of frogs; cited from earlier work"}, "heart tissue": {"tested_on": "heart tissue", "details": "heart tissue of rabbits; cited from earlier work"}, "[4]": {"assay": "Single subcutaneous dose of uridine with and without dilazep, plasma/urine uridine pharmacokinetics", "type": "in vivo, rhesus monkeys (Macaca mulatta)", "details": "rhesus monkey, sc", "description": "Single dose of Uridine and effect of Dilazep\nThe uridine was administered both with and without dilazep. When dilazep was given it was administered at either 1 or 2 mg/kg of body weight, dissolved in sterile phosphate-buffed saline (pH 7.4). Samples of blood (3 ml) were collected in heparinized tubes at 0, 5, 10, 15 and 30 minutes and 1, 2, 4 and 6 hours after injection. When possible, urine was also collected by cytocentesis at similar time intervals. The plasma and urine samples were frozen at -20° C. until analysis.\nThe proteins were removed by centrifugation, and sample temperature was maintained at 5° C. The supernant was removed and an equivalent amount of a 1:1 mixture of ice cold trioctylamine and 1,1,2-trichlorotrifluoroethane (freon) was added. […] Reversed-phased chromatography was performed using a Hypersil ODS 5 μm column (Jones Chromatography, Littleton, Colo.). Urine samples were filtered through a 0.45 μm pore size Acro LC 13 filter (Gelman Sciences, Ann Arbor, Mich.) to remove proteins and 50 μl aliquots were analyzed by HPLC. Isocratic elution was performed at 1 ml/min with 10 mM phosphoric acid and 10 μM heptane sulfonic acid (pH 3.1). Column temperature was maintained at 25° C., and the absorbance was measured at 254 nm. […] After adding 5 ml of Econo-Safe scintillation fluor (Research Products International Corp., Mount Prospect, Ill.), radioactivity was measured by using Beckman Model LS 5000TA liquid scintillation counter (Beckman Instruments, Inc., Fullerton, Calif.) equipped with an automatic quenching correction program. […] The detection limits were 2.0 μM.\nThe pharmacokinetic parameters of uridine was estimated by […] model-independent methods using a SIPHAR/Base program. The AUC was determined by the trapeziodal rule with extrapolation to time infinity using the terminal disposition slope (K) generated by a weighted nonlinear least-squares regression of an exponential fit of the data, with the weighted square factor set as the reciprocal of the calculated concentration squared. […] The peak plasma concentration (Cmax) values and time to peak plasma concentration (Tmax) values were observed experimental values. Renal clearance (CLR) of uridine was calculated by dividing the […] by the AUC."}, "CCl4 damaged rat livers": {"tested_on": "CCl4 damaged rat livers", "details": "cited from earlier work"}, "[5]": {"tested_on": "isolated rat skeletal muscle", "details": "low concentrations of uridine (10^-4 M); cited from earlier work"}, "[6]": {"details": "cited from earlier work"}, "[7]": {"details": "cited from earlier work", "remark": "listed apart in the source"}, "GABA receptor": {"tested_on": "GABA receptor", "details": "cerebellar membranes and brain areas associated with convulsions; cited from earlier work"}, "[8]": {"tested_on": "hereditary orotic aciduria", "details": "human, in vivo; cited from earlier work"}, "[9]": {"assay": "Administration of dilazep to Rhesus monkeys, plasma uridine levels and toxicity", "type": "in vivo", "details": "dilazep 1 to 2 mg/kg of body weight per day", "description": "Uridine secretion can be inhibited by administering compounds of the type noted above by Formula (I) or by administering the uridine competing compounds noted above. Uridine secretion inhibiting compounds of the type denoted by Formula (I) typically are administered at preferred doses in the range of about 1 to 5 mg/kg of body weight 2 to 3 times per day. Uridine competing compounds preferably are administered at doses ranging from 5 to 50 mg/kg of body weight 2 to 3 times per day. […] Moreover, such treatment increases by about 4 to 5-fold, the plasma half-life of uridine. These uridine levels are roughly equivalent to those obtained by administering high doses of uridine (1 to 3 g/m^2 per day), without the toxic side effects associated with uridine administration."}, "[10]": {"details": "plasma, uridine parameter, 83.3 mg/kg uridine s.c., no dilazep"}},
  "note": "Like-named read-outs stand apart in the source and are kept apart here.",
  "data": [
    {"smiles": "O=c1ccn([C@@H]2O[C@H](CO)[C@@H](O)[C@H]2O)c(=O)[nH]1", "note": "[uridine]", "values": [
      {"measurement": "myocardial contractility", "setting": "hearts [1]", "value": "increase myocardial contractility"},
      {"measurement": "myocardial contractility", "setting": "hearts [2]", "value": "increase myocardial contractility"},
      {"measurement": "protection (and reversal) from myelosuppression of pyrimidine analogues", "setting": "bone marrow cell growth; in vitro and in vivo", "value": "Complete protection (and reversal)"},
      {"measurement": "myocardial contractility", "setting": "hearts [3]", "value": "increase myocardial contractility"},
      {"measurement": "myocardial performance, glucose uptake, glycogen synthesis and breakdown of ATP", "setting": "heart tissue", "value": "increase myocardial performance, glucose uptake, glycogen synthesis and the breakdown of ATP"},
      {"measurement": "Cmax/C0", "setting": "[4]; in vivo, 83.3 mg/kg", "value": 10.7},
      {"measurement": "CL renal", "setting": "[4]; in vivo, uridine parameter, 83.3 mg/kg uridine s.c., no dilazep, read-out: ClR (renal clearance of uridine) (converted)", "value": 1.12, "unit": "mL/min/kg"},
      {"measurement": "AUC", "setting": "[4]; [10]", "value": 370, "unit": "µM·h"},
      {"measurement": "Cmax", "setting": "[4]; [10]", "value": 175, "unit": "µM"},
      {"measurement": "Tmax", "setting": "[4]; [10]", "value": 30, "unit": "min"},
      {"measurement": "conjugating and excretory functions", "setting": "CCl4 damaged rat livers", "value": "normalize conjugating and excretory functions"},
      {"measurement": "glucose uptake and glycogen synthesis", "setting": "[5]", "value": "increase glucose uptake and glycogen synthesis"},
      {"measurement": "urinary excretion of uridine", "setting": "[6]; high doses of uridine (1 to 3 gm/m^2), several times per day", "value": "15-40 % of the dose"},
      {"measurement": "toxic side effects", "setting": "[6]; high doses of uridine", "value": "phlebitis, pyrogenic reactions and diarrhea"},
      {"measurement": "concentration in blood plasma", "setting": "[7]; endogenous, different species", "value": "1 to 5", "unit": "µM"},
      {"measurement": "plasma uridine entering the liver by the portal vein degraded in single pass", "setting": "[7]; hepatic uridine phosphorylase", "value": "More than 90%"},
      {"measurement": "half life in the plasma", "setting": "[7]; in vivo", "value": "approximately 2 minutes"},
      {"measurement": "effect on the GABA receptor", "setting": "GABA receptor", "value": "may have an agonist effect on the receptor"},
      {"measurement": "management of patients with hereditary orotic aciduria", "setting": "[8]", "value": "effective to manage patients with hereditary orotic aciduria"}
    ]},
    {"smiles": "COc1cc(C(=O)OCCCN2CCCN(CCCOC(=O)c3cc(OC)c(OC)c(OC)c3)CC2)cc(OC)c1OC", "note": "[dilazep, N,N'-bis[3-(3,4,5-trmethoxybenzoyloxy)propyl] homopiperazine]", "values": [
      {"measurement": "toxicity", "setting": "[9]", "value": "without apparent toxicity"}
    ]},
    {"smiles": "O=c1[nH]c(=O)n([C@H]2C[C@H](O)[C@@H](CO)O2)cc1F", "note": "[FdUrd, 5-fluoro-2'-deoxyuridine]", "values": [
      {"measurement": "limiting toxicity", "setting": "bone marrow cell growth", "value": "myelosuppression"}
    ]},
    {"smiles": "O=c1[nH]cc(F)c(=O)[nH]1", "note": "[5-FU, 5-fluorouracil]", "values": [
      {"measurement": "limiting toxicity", "setting": "bone marrow cell growth", "value": "myelosuppression"}
    ]},
    {"smiles": "Cc1cn([C@H]2C[C@H](N=[N+]=[N-])[C@@H](CO)O2)c(=O)[nH]c1=O", "note": "[AZT, 3'-azido-3'-deoxythymidine]", "values": [
      {"measurement": "limiting toxicity", "setting": "bone marrow cell growth", "value": "myelosuppression"}
    ]}
  ]
}
